# Publication PMC8154581, “Discovery of Novel Thiophene-arylamide Derivatives as DprE1 Inhibitors with Potent Antimycobacterial Activities” (Journal of Medicinal Chemistry, 2021)
# How the values were obtained:
# Experiment in all cases: microbe, parasite or virus in culture
# Type in all cases: cell-based
# [1] = tested on: M. tuberculosis clinical isolate 13946; settings: Mycobacterium tuberculosis, read-out: MIC 13946
# [2] = tested on: M. tuberculosis clinical isolate 14862; settings: Mycobacterium tuberculosis, read-out: MIC 14862
# [3] = tested on: PBTZ169-resistant strain of M. tuberculosis; settings: Mycobacterium tuberculosis, read-out: MIC PBTZ169-resistant strain
# [4] = tested on: bedaquiline-resistant strain of M. tuberculosis; settings: Mycobacterium tuberculosis, read-out: MIC bedaquiline-resistant strain
structure (smiles),measurement,setting,value
"CCOC(=O)NC(=O)c1ccsc1NC(=O)c1ccc(C(=O)N2CCCCC2)cc1 [Compound 23j, Ethyl (2-(4-(Piperidine-1-carbonyl)benzamido)thiophene-3-carbonyl)carbamate]",MIC,[1],0.082 µg/mL
same,MIC,[2],0.059 µg/mL
"CCOC(=O)NC(=O)c1ccsc1NC(=O)c1ccc(C(=O)N2CCCCC2)c(F)c1 [Compound 24f, Ethyl (2-(3-Fluoro-4-(piperidine-1-carbonyl)benzamido)thiophene-3-carbonyl)carbamate]",MIC,[1],0.031 µg/mL
same,MIC,[2],0.031 µg/mL
"CCOC(=O)NC(=O)c1ccsc1NC(=O)c1ccc(C(=O)N2CCCCC2)s1 [Compound 24j, Ethyl (2-(5-(Piperidine-1-carbonyl)thiophene-2-carboxamido)thiophene-3-carbonyl)carbamate]",MIC,[1],0.12 µg/mL
same,MIC,[2],0.12 µg/mL
"CCOC(=O)NC(=O)c1ccsc1NC(=O)c1coc(C(=O)N2CCCCC2)c1 [Compound 24k, Ethyl (2-(5-(Piperidine-1-carbonyl)furan-3-carboxamido)thiophene-3-carbonyl)carbamate]",MIC,[1],0.44 µg/mL
same,MIC,[2],0.23 µg/mL
"COC(=O)NC(=O)c1ccsc1NC(=O)c1ccc(C(=O)N2CCCCC2)cc1 [Compound 25a, Methyl (2-(4-(Piperidine-1-carbonyl)benzamido)thiophene-3-carbonyl)carbamate]",MIC,[1],0.24 µg/mL
same,MIC,[2],0.24 µg/mL
"COC(=O)NC(=O)c1ccsc1NC(=O)c1ccc(C(=O)N2CCCCC2)c(F)c1 [Compound 25b, Methyl (2-(3-Fluoro-4-(piperidine-1-carbonyl)benzamido)thiophene-3-carbonyl)carbamate]",MIC,[1],0.062 µg/mL
same,MIC,[2],0.12 µg/mL
"O=C(Nc1sccc1C(=O)Nc1nccc(C(F)(F)F)n1)c1ccc(C(=O)N2CCCCC2)cc1 [Compound 25l, 2-(4-(Piperidine-1-carbonyl)benzamido)-N-(4-(trifluoromethyl)pyrimidin-2-yl)thiophene-3-carboxamide]",MIC,[1],0.94 µg/mL
same,MIC,[2],0.48 µg/mL
"NNC(=O)c1ccncc1 [INH, isoniazid, reference compound]",MIC,[1],2.46 µg/mL
same,MIC,[2],> 10 µg/mL
O=c1nc(N2CCN(CC3CCCCC3)CC2)sc2c([N+](=O)[O-])cc(C(F)(F)F)cc12 [PBTZ169],MIC,[3],0.005 µg/mL
"CCOC(=O)NC(=O)c1ccsc1NC(=O)c1nc2ccccc2s1 [TCA1, reference compound]",MIC,[1],0.95 µg/mL
same,MIC,[2],0.48 µg/mL
"COc1nc2ccc(Br)cc2cc1[C@@H](c1ccccc1)[C@@](O)(CCN(C)C)c1cccc2ccccc12 [bedaquiline, reference compound]",MIC,[4],2.24 µg/mL
